In one series the test system is animal. To be noted: in vivo; cited from earlier work.
The test system of a further series is sodium channel. Briefly: Temperature-dependent circular dichroism at 222 nM (helix-coil transition). It is filed as biochemical, beef (bovine brain). To be noted: 222 nm wavelength; for % Loss of Helix (35° to 40° C.) / % Loss of Helix (30° to 35° C.): fresh AChE; for % Loss of Helix (35° to 40° C.): control 4.7 (pilocarpine), 4.6 (lidocaine); for % Loss of Helix (30° to 35° C.): control 21.8 (pilocarpine), 12.1 (lidocaine); for effect on alpha helix from 35° C. to 40° C. / effect on helical transition normally observed between 30°-35° C.: beef brain nerve cell protein preparation; for effect on helical transition normally observed between 30°-35° C.: 15° C. to 60° C. The source says:
As disclosed in PCT/US93/05792, published Jan. 6, 1994, one can identify compounds with potential analgesic effect by using circular dichroism to bioassay the interaction of molecules with ion channels, including sodium channels. Likewise, this bioassay technique is applicable to the thiophene compounds of the present invention.
To perform this method, solubilized nerve cell membrane proteins and acetylcholinesterase are purified using ion exchange and size exclusion chromatography. Then, one forms a mixture of a nerve cell protein and a compound capable of blocking or preventing the normal function of preferably the sodium channel in an excitable cell, and subjects that mixture to circular dichroism at a wave length of […] wave length. The transition of molar ellipticity is measured while varying the temperature of the mixture between 25°-50° C. The transition of molar ellipticity of the mixture is compared with the transition of molar ellipticity of a control nerve cell protein without the compound capable of blocking or preventing the normal function of the sodium channel in an excitable cell. The alpha helix content, as measured at […], is used to monitor the effect of temperature change on the ion channel's conformational change.
However, when a sodium channel active molecule is added to the membrane preparation, the temperature-dependent helix transition observed using circular dichroism is altered. […] These compounds, therefore, seem to stabilize the helix conformation of the sodium channel and to prevent the temperature-dependent uncoiling of alpha helix between 30° C.-35° C.
Background: Circular dichroism is the unequal absorption of left and right circularly polarised light.

The conditions of series [1]: cardiac patients, routine therapeutic administration of lidocaine; cited from earlier work.
The subject of a further series is rats. The following applies: cited from earlier work.
The next series has as its system mice. The following applies: cited from earlier work.
Series [2] deals with Salmonella strains TA98, TA100, TA1535 and TA97. To be noted: cited from earlier work.
The test system of the next series is Fischer rats. The following applies: cited from earlier work.
The test system of a further series is B6C3FI mice. To be noted: cited from earlier work.
[3] abbreviates: surviving female mice, relative to controls.

The source of these data is patent US5776859A, “Sodium channel active novel compounds and related processes and bioassay techniques” (priority 1995, dated 1998).

Like-named read-outs stand apart in the source and are kept apart here.

`Cc1cccc(C)c1N` [2,6-xylidine]: the carcinogenicity entry in the series on animal is “established animal and probable human carcinogen”.

`CCN(CC)CC(=O)Nc1c(C)cccc1C` [Lidocaine]: in the series with sodium channel, the “% Loss of Helix (35° to 40° C.)” value is listed as 13.6%, the “% Loss of Helix (30° to 35° C.)” value amounted to 1.8%, the “effect on alpha helix from 35° C. to 40° C.” value is given as “the alpha helix uncoils to equal the helix in the control sample” and the “effect on helical transition normally observed between 30°-35° C.” value was “prevented the helical transition normally observed between 30°-35 °C”. Moreover, the “2,6-xylidine in human serum hemoglobin adduct” value in series [1] was “high levels of 2,6-xylidine”.

For `CC[C@@H]1C(=O)OC[C@@H]1Cc1cncn1C` [Pilocarpine], in the series with sodium channel, the “% Loss of Helix (35° to 40° C.)” value is on record as 17.5%, the “% Loss of Helix (30° to 35° C.)” value worked out at 7.1%, the “effect on alpha helix from 35° C. to 40° C.” value is recorded as “the alpha helix uncoils to equal the helix in the control sample” and the “effect on helical transition normally observed between 30°-35° C.” value was “prevented the helical transition normally observed between 30°-35 °C”.

In the case of `Cc1ccccc1N.Cl` [ortho-toluidine hydrochloride], the carcinogenicity result in the series with rats was “carcinogenic in rats and mice”; in the series with mice, “carcinogenic in rats and mice”.

With `c1ccsc1` [thiophene], the mutagenicity result in series [2] was “does not function as a mutagen in this assay”. Further, the “absolute lung weight and lung to brain weight ratio” value with Fischer rats (all dose groups of both sexes surviving until study termination) was “decrease in the absolute lung weight and in the lung to brain weight ratio”. Also, the mortality result was “mortality also occurred in the 2000 and 4000 ppm male exposure groups” in the series on Fischer rats (male rats, 2000 and 4000 ppm, first week); “All rats exposed to 8000 ppm died following one exposure” with Fischer rats (rats, 8000 ppm, one exposure); “Total mortality” in the series on B6C3FI mice (female mice, 8000 ppm and 4000 ppm). For the same compound, the “group mean body weight” value in the series with Fischer rats (rats of both sexes, relative to control) is reported as “dose-related depression in group mean body weight relative to control”. For the same compound, in the series on Fischer rats (rats, 4000 ppm), the “clinical signs of toxicity” value is “rough haircoat, ocular discharge, nasal discharge, dyspnea, and staggering gait”. Moreover, in the series with Fischer rats (rats, 4000 ppm), the “microscopic examination, lung” value is recorded as “chronic active inflammation of the lung”. For the same compound, the “microscopic examination, liver” value in the series on Fischer rats (rats, all exposure groups, severity increasing with dose) is listed as “necrotizing inflammation of the liver in all exposure groups with severity increasing with dose”. The “toxicity to liver and lung” value in the series on Fischer rats (summary of rat and mice studies, extremely high inhalation doses) is “shows toxicity to liver and lung”. In addition, the survival result in the series on B6C3FI mice (female mice, 1000 ppm and 500 ppm) was “survived the study”. For the same compound, the “female mice died as a result of exposures” value in the series on B6C3FI mice (female mice, 2000 ppm) is on record as 2/10. In the series with B6C3FI mice (male mice, all exposure levels, single exposure), the survival / mortality result was “died or were terminated in moribund condition following a single exposure”. Moreover, the “microscopic pathology, hepatocytes” value with B6C3FI mice (mice that died early (within several hours after first exposure)) was “centrilobular degeneration of hepatocytes”; with B6C3FI mice (surviving mice, all exposure levels) it was “centrilobular necrosis of hepatocytes”. For the same compound, in the series with B6C3FI mice (mice), the “microscopic pathology, cause of mortality” value is recorded as “mortality was attributed to liver toxicity”. The “other exposure-related microscopic lesions” value with B6C3FI mice (mice) is “No other exposure-related microscopic lesions were found”. Moreover, the “microscopic pathology, nose and nasal cavity” value in the series on B6C3FI mice (mice, more severe in mice that survived the study) is “Necrotizing inflammation of the nose and nasal cavity”. For the same compound, in the series with B6C3FI mice (setting [3]), the “liver absolute and relative organ weights (liver-to-body and liver-to-brain weight ratios)” value is “increased relative to the controls”. Further, the “thymus organ weight parameters” value in the series with B6C3FI mice (setting [3]) was “reduced”. The “mean body weights or mean lung weights” value in the series with B6C3FI mice (surviving female mice) is “did not affect mean body weights or mean lung weights”. In addition, the signs of toxicity result in the series with B6C3FI mice (surviving mice, 500 ppm and 1000 ppm) is “hypoactivity and abnormal posture”; in the series with B6C3FI mice (surviving mice, 2000 ppm) it was “dyspnea”.
